# Source: patent publication US20200206350A1, “COMPOUNDS FOR REDUCING THE VISCOSITY OF BIOLOGICAL FORMULATIONS” (Merck Sharp & Dohme Corp., priority 2017, published 2020)
# Structures can show the parent of a compound that is named as a salt. Marks after values point to notes of the source that are not given here.
# Legend:
# [1] = test system: pembrolizumab; assay: Viscosity of pembrolizumab test formulations (mVROC viscometer); assay type: physicochemical; details: 10 mM histidine buffer, 200 mg/mL pembrolizumab, 0.2 M excipient, pH 5.5
# Description: Pembrolizumab formulations comprised the following: 10 mM histidine buffer, pembrolizumab at a concentration of 200 mg/mL, and the test excipient (pegylated excipient of the invention, as described herein) at a concentration of 200 mM, pH adjusted to pH 5.5. Pembrolizumab formulations without excipients consisted of 200 mg/mL pembrolizumab in 10 mM histidine buffer at pH 5.5. The 10 mM histidine buffer used with pembrolizumab formulations consisted of consists of 10 mM L-histidine in sterile water, pH adjusted to 5.5.
# (§1) All viscosity measurements were conducted using the mVROC (Viscometer/Rheometer-On-A-Chip, RheoSense, Inc., San Ramon, Calif.). The test formulations were placed into a 250 μl Hamilton air-tight syringe, which was then placed inside the syringe jacket of the mVROC. The instrument injected formulation into the chip for viscosity measurement at an appropriate flow rate. Most measurements were done in duplicates.
# [2] = test system: Antibody B; assay: Viscosity of Antibody B test formulations (mVROC viscometer); assay type: physicochemical; details: 10 mM histidine buffer, 177 mg/mL Antibody B, 0.2 M excipient, pH 6.0
# Description: Antibody B formulations comprised the following: 10 mM histidine buffer, Antibody B at a concentration of 177 mg/mL and the test excipient (pegylated excipient of the invention, as described herein) at a concentration of 200 mM, pH adjusted to pH 6.0. The Antibody B formulation without excipients consisted of 177 mg/mL Antibody B in 10 mM histidine buffer at pH 6.0. The 10 mM histidine buffer used with Antibody B consisted of 10 mM L-histidine in sterile water, pH adjusted to 6.0.
# as §1
smiles,measurement,setting,value
"COCCOCCOCCN[C@@H](Cc1c[nH]cn1)C(=O)O [Example 19, (2-(2-(2-methoxyethoxy)ethoxy)ethyl)-L-histidine]",Viscosity 1,[1],26.58 mPa-s
same,Viscosity 2,[1],26.83 mPa-s
same,Viscosity Average,[1],26.71 mPa-s
"COCCOCCN(CCOCCOC)[C@@H](Cc1c[nH]cn1)C(=O)O [Example 6, (S)-2-(bis(2-(2-methoxyethoxy)ethyl)amino)-3-(1H-imidazol-4-yl)propanoic acid]",Viscosity 1,[1],17.57* *Ave- rage of 3 values mPa-s
same,Viscosity 2,[1],18.10* *Ave- rage of 3 values mPa-s
same,Viscosity Average,[1],17.83** **Ave- rage of 6 values mPa-s
"COCCOCCOCCOCCN[C@@H](Cc1c[nH]cn1)C(=O)O [Example 18, (2,5,8,11-tetraoxatridecan-13-yl)-L-histidine]",Viscosity 1,[1],22.82 mPa-s
same,Viscosity 2,[1],22.47 mPa-s
same,Viscosity Average,[1],22.65 mPa-s
"COCCOCCN(CCOCCOC)[C@@H](Cc1c[nH]cn1)C(=O)O [Example 9, (S)-2-(bis(2-(2-methoxyethoxy)ethyl)amino)-3-(1H-imidazol-4-yl)propanoic acid dihydrochloride]",Viscosity 1,[2],26.55 mPa-s
same,Viscosity 2,[2],26.67 mPa-s
same,Viscosity Average,[2],26.61 mPa-s
"COCCOCCOCC(=O)N[C@@H](Cc1c[nH]cn1)C(=O)O [Example 1, (S)-12-((1H-imidazol-4-yl)methyl)-10-oxo-2,5,8-trioxa-11-azatridecan-13-oic acid]",Viscosity 1,[1],23.12 mPa-s
same,Viscosity 2,[1],23.27 mPa-s
same,Viscosity Average,[1],23.20 mPa-s
"COCCOCC(=O)N[C@@H](Cc1ccc(O)cc1)C(=O)O [Example 23, (2-(2-methoxyethoxy)acetyl)-L-tyrosine]",Viscosity 1,[1],20.15 mPa-s
same,Viscosity 2,[1],20.09 mPa-s
same,Viscosity Average,[1],20.12 mPa-s
"COCCOCCOCCOCC(=O)N[C@@H](CCCNC(=N)N)C(=O)O [Example 17, (2,5,8,11-tetraoxatridecan-13-oyl)-L-arginine]",Viscosity 1,[1],23.09 mPa-s
same,Viscosity 2,[1],22.82 mPa-s
same,Viscosity Average,[1],22.96 mPa-s
"COCCOCCOCC(=O)N[C@@H](CCCNC(=N)N)C(=O)O [Example 2, (S)-12-(3-guanidinopropyl)-10-oxo-2,5,8-trioxa-11-azatridecan-13-oic acid]",Viscosity 1,[1],22.05 mPa-s
same,Viscosity 2,[1],22.24 mPa-s
same,Viscosity Average,[1],22.15 mPa-s
"COCCOCCN(CCOCCOC)[C@@H](CCCNC(=N)N)C(=O)O [Example 5, (S)-2-(bis(2-(2-methoxyethoxy)ethyl)amino)-5-guanidinopentanoic acid]",Viscosity 1,[1],18.02* *Ave- rage of 4 values mPa-s
same,Viscosity 2,[1],18.37* *Ave- rage of 4 values mPa-s
same,Viscosity Average,[1],18.19** **Ave- rage of 8 values mPa-s
"COCCOCC(=O)N[C@@H](Cc1c[nH]cn1)C(=O)O [Example 13, (2-(2-methoxyethoxy)acetyl)-L-histidine]",Viscosity 1,[1],20.05 mPa-s
same,Viscosity 2,[1],20.09 mPa-s
same,Viscosity Average,[1],20.07 mPa-s
"N[C@@H](Cc1c[nH]cn1)C(=O)O [Histidine, reference compound]",Viscosity 1,[1],35.79 mPa-s
same,Viscosity 2,[1],35.32 mPa-s
same,Viscosity Average,[1],35.56 mPa-s
"COCCOCCN[C@@H](Cc1c[nH]cn1)C(=O)O [Example 12, (S)-3-(1H-imidazol-4-yl)-2-((2-(2-methoxyethoxy)ethyl)amino)propanoic acid]",Viscosity 1,[1],22.19 mPa-s
same,Viscosity 2,[1],22.33 mPa-s
same,Viscosity Average,[1],22.26 mPa-s
"COCCOCCN(C(=O)COCCOC)[C@@H](CCCNC(=N)N)C(=O)O [Example 3, (S)-5-guanidino-2-(2-(2-methoxyethoxy)-N-(2-(2-methoxyethoxy)ethyl)acetamido)pentanoic acid]",Viscosity 1,[1],21.12 mPa-s
same,Viscosity 2,[1],21.18 mPa-s
same,Viscosity Average,[1],21.15 mPa-s
COCCOCC(=O)N[C@@H](Cc1ccccc1)C(=O)O [Example 22],Viscosity 1,[1],17.77 mPa-s
same,Viscosity 2,[1],17.63 mPa-s
same,Viscosity Average,[1],17.70 mPa-s
"COCCOCCN(C(=O)COCCOC)[C@@H](Cc1c[nH]cn1)C(=O)O [Example 4, (S)-3-(1H-imidazol-4-yl)-2-(2-(2-methoxyethoxy)-N-(2-(2-methoxyethoxy)ethyl)acetamido)propanoic acid]",Viscosity 1,[1],19.64 mPa-s
same,Viscosity 2,[1],19.28 mPa-s
same,Viscosity Average,[1],19.46 mPa-s
"COCCOCCN(CCOCCOC)[C@@H](CCCCN)C(=O)O [Example 11, (S)-6-amino-2-(bis(2-(2-methoxyethoxy)ethyl)amino)hexanoic acid]",Viscosity 1,[1],21.36 mPa-s
same,Viscosity 2,[1],21.50 mPa-s
same,Viscosity Average,[1],21.43 mPa-s
"N=C(N)NCCC[C@H](N)C(=O)O [Arginine, reference compound]",Viscosity 1,[1],30.25 mPa-s
same,Viscosity 2,[1],30.55 mPa-s
same,Viscosity Average,[1],30.40 mPa-s
"COCCOCCN(CCOCCOC)[C@@H](CCCNC(=N)N)C(=O)O [Example 8, (S)-2-(bis(2-(2-methoxyethoxy)ethyl)amino)-5-guanidinopentanoic acid dihydrochloride]",Viscosity 1,[2],22.25 mPa-s
same,Viscosity 2,[2],22.19 mPa-s
same,Viscosity Average,[2],22.22 mPa-s
"COCCOCC(=O)N[C@@H](CCCNC(=N)N)C(=O)O [Example 15, (2-(2-methoxyethoxy)acetyl)-L-arginine dihydrochloride]",Viscosity 1,[1],18.67 mPa-s
same,Viscosity Average,[1],18.67 mPa-s
"COCCOCCN[C@@H](CCCNC(=N)N)C(=O)O [Example 14, (S)-5-guanidino-2-((2-(2-methoxyethoxy)ethyl)amino)pentanoic acid]",Viscosity 1,[1],24.59 mPa-s
same,Viscosity 2,[1],24.76 mPa-s
same,Viscosity Average,[1],24.68 mPa-s
"COCCOCC(=O)N[C@@H](CCCCN)C(=O)O [Example 10, (S)-6-amino-2-(2-(2-methoxyethoxy)acetamido)hexanoic acid]",Viscosity 1,[1],26.39 mPa-s
same,Viscosity 2,[1],26.35 mPa-s
same,Viscosity Average,[1],26.37 mPa-s
"N=C(N)NCCC[C@@H](C(=O)O)N(CCOCCO)CCOCCO [Example 20, (S)-2-(bis(2-(2-hydroxyethoxy)ethyl)amino)-5-guanidinopentanoic acid]",Viscosity 1,[1],25.28 mPa-s
same,Viscosity 2,[1],25.42 mPa-s
same,Viscosity Average,[1],25.35 mPa-s
COCCOCCOCCOCC(=O)N[C@@H](Cc1c[nH]cn1)C(=O)O [Example 16],Viscosity 1,[1],23.33 mPa-s
same,Viscosity 2,[1],23.54 mPa-s
same,Viscosity Average,[1],23.44 mPa-s
"O=C(O)[C@H](Cc1c[nH]cn1)N(CCOCCO)CCOCCO [Example 21, (S)-2-(bis(2-(2-hydroxyethoxy)ethyl)amino)-3-(1H-imidazol-4-yl)propanoic acid]",Viscosity 1,[1],23.19 mPa-s
same,Viscosity 2,[1],23.16 mPa-s
same,Viscosity Average,[1],23.18 mPa-s
